Blank lines part the entries; values can stand above or below the compound they belong to.
Assays:
[1] = Body weight in HCC1187 TNBC mouse model; settings: in vivo
NudHL1 DLBCL xenografts = assay: CIVO microinjection, CC3 staining after 6 hours; format: in vivo, mice; settings: treated for 6 hours
Experimental: Mice were enrolled into CIVO drug studies when the tumor volume reached approximately 1000 mm^3. Microinjection studies were performed using the CIVO device as previously described (Klinghoffer et al, Science Translational Medicine 2015) The device was configured with 6 injection needles set for a 6 mm injection length and a total volume delivery of 3 μl. A fluorescent tracking marker (FTM) was added to each drug reservoir in vehicle for delivery along with each drug or drug combination. […] Total amounts of agents injected are tabulated below in Table 4.
FIGS. 9A-9D depict cells that were treated as above and stained for cleaved caspase-3 (CC3) as a marker of apoptosis (shown in red).
FIGS. 10A-10D depict cells that were treated as above and stained for cleaved caspase-3 (CC3) as a marker of apoptosis (shown in red).

[2] = test system: HCC1187 triple negative breast cancer (TNBC) xenograft model; assay: CIVO microinjection, MCL-1 and CC3 staining; format: in vivo, mice; settings: for expression of MCL-1: drug screen; for CC3 expression: marker of apoptosis
Experimental: (§1) Mice were enrolled into CIVO drug studies when the tumor volume reached approximately 1000 mm^3. Microinjection studies were performed using the CIVO device as previously described (Klinghoffer et al, Science Translational Medicine 2015) The device was configured with 6 injection needles set for a 6 mm injection length and a total volume delivery of 3 μl. A fluorescent tracking marker (FTM) was added to each drug reservoir in vehicle for delivery along with each drug or drug combination. All micro-doses were equivalent to or lower than what would be allowed under FDA guidelines for Exploratory IND (Investigational New Drug) studies and by solubility of drug into vehicle. Total amounts of agents injected are tabulated below in Table 4.
A drug screen was performed to test multiple drugs simultaneously.
FIG. 11 depicts a similar experiment performed on the HCC1187 triple negative breast cancer (TNBC) xenograft model. […] Cells were then stained for CC3 expression (shown in red) as a marker of apoptosis.
FIGS. 20A-20D depicts the HCC1187 triple negative breast cancer (TNBC) xenograft model. Briefly, cells were treated with vehicle, voruciclib alone, ixazomib alone, or voruciclib and ixazomib in combination. Cells were then stained for CC3 expression (shown in red) as a marker of apoptosis.

tissue section = assay: Tissue section treated with bortezomib; format: in vivo; settings: some cells appear resistant
[3] = test system: HCC1187 triple negative breast cancer cells; assay: Western blot of treated cells; format: cell-based; settings: for XBP1 expression: at 24 hours
Experimental: Cell lines shown in Table 1, adherent or suspension, were treated in 6-well dishes or T10 flasks respectively, seeded at one million per ml density prior to treatment in total volumes of 3-10 ml. All agents used for in vitro cell treatments were formulated in water/DMSO to achieve required concentrations (as stated in respective figure labels/legends) with DMSO concentrations not exceeding 0.01%. Drug sources are indicated in table under ‘CIVO microinjection studies’. Cells were harvested at experimental time points: 2, 6, or 24 hours post treatment as indicated in respective figures, first by washing cells twice in ice-cold PBS in 15 ml falcon tubes, centrifugation at 1000 rpm for 5 mins followed by lysis of the respective cell pellets as described in section below. Note: Drug resistant NUDHL1 Dox 1000 nM and Toledo Dox 1000 nM cell lines were generated at Presage by culturing parental lines in media with stepwise increments in Doxorubicin concentration over several passages. These cells were used to generate xenografts when resistance to 1 uM Dox was achieved.
Protein lysates were prepared by adding ice-cold 1×RIPA Buffer (from 10×, Millipore) with 1×-3× Halt protease and phosphatase inhibitor cocktail (100×, Pierce) to cell pellets, followed by pulse sonication (˜3-5 secs) three times. Lysates were cleared by centrifugation at 14K rpm for 15-20 mins and the supernatant (lysate) was collected for further analysis. To prepare lysates from cryopreserved xenograft tumor tissue, tissue was first homogenized using a hand-held tissue homogenizer (Cole Palmer) in above lysis buffer followed by pulse sonication and centrifugation as described above. Above steps were carried out under ice cold conditions. […] 20-25 micrograms of protein from each sample were subject to SDS-PAGE using BOLT 4-12% Bis-Tris gels (Thermofisher) and transferred to either 0.45 or 0.2 micron pore size membranes (as applicable based on protein molecular size), and either nitrocellulose (NC) or pvdf (Thermofisher) using manufacturer's protocol, blocked for one hour in 5% milk at room temperature, probed with primary antibodies (Table 2) at 4 deg C. overnight and corresponding HRP-conjugated secondary antibodies (Jackson Immunoresearch, 1:10,000-1:20,000 dilutions) for 1 hour at room temperature. Three PBS/0.01% Tween-20 washes (5-10 mins each) were carried out after each antibody incubation. ECL chemiluminescent substrate (Pierce or GE) and autoradiographic film (Thermofisher) was used for detection of protein signals.
1 ug of mRNA from each condition was used to generate cDNA using the High Capacity cDNA Reverse Transcription Kit (Applied Biosystems) and manufacturer's protocol. 100 ng cDNA was used to conduct a PCR assay to amplify XBP1 u or splice forms (Thermofisher PCR Supermix)—94 deg C. for 2 mins, (94 deg C. for 15 secs, 55 deg C. for 30 secs, 72 deg C. for 1 min)×30 cycles, 72 deg C. for 7 mins, hold at 4 deg C.

MAK = MAK (Homo sapiens, UniProt P20794); assay: Kinase inhibition profile
ICK = ICK (Homo sapiens, UniProt Q9UPZ9); assay: Kinase inhibition profile; format: biochemical
tumor cells = assay: Solid tumor section, CDK inhibitors in combination with ixazomib; design: species or system mice; settings: mouse, in vivo
Experimental: as §1

Sequence of MAK (P20794 whole entry): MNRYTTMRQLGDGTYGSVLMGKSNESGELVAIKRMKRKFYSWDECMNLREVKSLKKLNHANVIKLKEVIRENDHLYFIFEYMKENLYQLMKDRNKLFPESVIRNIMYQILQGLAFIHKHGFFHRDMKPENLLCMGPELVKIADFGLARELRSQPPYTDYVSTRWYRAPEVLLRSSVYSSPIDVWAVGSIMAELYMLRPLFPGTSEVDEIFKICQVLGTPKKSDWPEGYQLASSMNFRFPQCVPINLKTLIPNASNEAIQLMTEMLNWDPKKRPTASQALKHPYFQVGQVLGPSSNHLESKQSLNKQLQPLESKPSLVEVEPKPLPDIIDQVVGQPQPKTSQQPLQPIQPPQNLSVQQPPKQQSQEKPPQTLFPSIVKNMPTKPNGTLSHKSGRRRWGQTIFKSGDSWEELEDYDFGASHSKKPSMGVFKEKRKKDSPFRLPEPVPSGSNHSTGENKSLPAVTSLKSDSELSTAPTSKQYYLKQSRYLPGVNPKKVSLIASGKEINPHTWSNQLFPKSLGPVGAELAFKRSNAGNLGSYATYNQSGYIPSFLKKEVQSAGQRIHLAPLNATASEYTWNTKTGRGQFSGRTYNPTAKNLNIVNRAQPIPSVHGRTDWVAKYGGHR
Sequence of ICK (Q9UPZ9 whole entry): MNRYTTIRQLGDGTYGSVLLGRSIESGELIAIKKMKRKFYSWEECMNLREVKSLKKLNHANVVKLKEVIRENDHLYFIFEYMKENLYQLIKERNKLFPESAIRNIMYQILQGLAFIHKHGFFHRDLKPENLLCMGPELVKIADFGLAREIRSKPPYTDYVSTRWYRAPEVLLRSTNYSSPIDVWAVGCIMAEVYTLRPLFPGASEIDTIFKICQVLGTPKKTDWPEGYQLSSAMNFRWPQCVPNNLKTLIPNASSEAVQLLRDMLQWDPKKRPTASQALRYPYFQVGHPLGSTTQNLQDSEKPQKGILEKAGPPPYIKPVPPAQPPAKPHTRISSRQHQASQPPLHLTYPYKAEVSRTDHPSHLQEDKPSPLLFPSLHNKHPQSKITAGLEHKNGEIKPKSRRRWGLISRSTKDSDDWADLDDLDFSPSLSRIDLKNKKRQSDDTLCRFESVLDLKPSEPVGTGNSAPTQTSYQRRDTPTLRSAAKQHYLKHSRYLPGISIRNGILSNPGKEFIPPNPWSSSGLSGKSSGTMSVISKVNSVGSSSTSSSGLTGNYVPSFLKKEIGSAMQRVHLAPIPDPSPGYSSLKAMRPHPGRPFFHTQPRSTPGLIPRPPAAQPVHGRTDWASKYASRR

Compound: CC(C)C[C@H](NC(=O)[C@H](Cc1ccccc1)NC(=O)c1cnccn1)B(O)O [bortezomib]
body weight of mice [1]: unaffected | CC3 expression (NudHL1 DLBCL xenografts): little to no increase | expression of MCL-1 [2]: increase | expression of MCL-1 ([2]; listed as Bortezomib): markedly increased | CC3 expression [2]: little to no increase | apoptosis (tissue section): induces apoptosis in some cells | MCL-1 protein expression ([3]; Western blot, compared to untreated sample): increased | XBP1 expression [3]: strongly induced

inhibition of MAK (MAK): potent inhibitor | inhibition of ICK (ICK): potent inhibitor
Compound: CN1CC[C@H](c2c(O)cc(O)c3c(=O)cc(-c4ccccc4Cl)oc23)[C@H](O)C1 [flavopiradol, reference compound]

Compound: CC(C)C[C@H](NC(=O)CNC(=O)c1cc(Cl)ccc1Cl)B(O)O [ixazomib]
CC3 expression [2]: little to no increase | synergistic effect on apoptosis of tumor cells (tumor cells): did not exhibit the synergistic effect

Compound: C[C@@]12OC(=O)[C@]1([C@@H](O)[C@@H]1C=CCCC1)NC(=O)[C@@H]2CCCl [marizomib]
CC3 expression (NudHL1 DLBCL xenografts): little to no increase

Compound: tunicamycin [reference compound]
X-box binding protein 1 (XBP1) expression ([3]; at 6 hours): strongly induced | XBP1 expression [3]: strongly induced
